Common to all, as to assay type: cell-based, human
Assay [1] deals with TNF-α/IFN-γ-exposed hPD-MSCs. The assay is described as follows: Mitochondrial membrane potential and distribution, MitoSpy confocal microscopy. To be noted: TNF-α/IFN-γ-exposed MSCs treated with compound; FIG. 2A. On the procedure: hPD-MSCs were stained with MitoSpy Orange CMTMRos (BioLegend, SanDiego, CA, USA) to observe mitochondrial membrane potential, and stained with […]. After 72 hours with or without […] treatment, hPD-MSCs were passaged on a gelatin-coated cover glass (Sigma, St. Louis, Missouri, USA) in 12-well plates (SPL) and stained 24 hours later. The hPD-MSCs were cultured in α-MEM containing 250 nM MitoSpy Green FM and 250 nM MitoSpy Orange CMTMRo for 30 minutes. Stained hPD-MSCs were fixed with 4% paraformaldehyde (Alfa Aesar, Ward Hill, Massachusetts, USA) for 5 minutes, and then stained with 1 μg/mL Hoechst 33342® (ThermoFisher) at room temperature for 5 minutes. Finally, the cover glass was mounted on a slide glass using a mounting solution (VectaShield, ThermoFisher) and samples were imaged with a confocal microscope (LSM880; Zeiss, Oberkochen, Germany). The fluorescence intensities of confocal images were quantified using ZEN 2018 Black and Blue edition software (Zeiss). […]

Another assay has as its system mitofusion 1 (MFN1). In words: Real-time qPCR, mitochondrial dynamics gene MFN1. The settings on record: vs TNF-α/IFN-γ-exposed MSC control (TI); FIG. 2B. On the procedure: (§1) Real-time qPCR was performed using an Easy-Spin Total RNA Kit (iNtRON, Seongnam, Korea) to extract total RNA from hPD-MSCs and RNA concentration was adjusted to 100 ng/μL using a microplate spectrophotometer (Epoch™ Microplate Spectrophotometer, BioTek, Winooski, VT, USA), and the extracted RNA was reverse transcribed into cDNA using RT PreMix (dT20) (Bioneer, Seoul, Korea) using a SimpliAmp Thermal Cycler (Life Technologies, Carlsbad, CA, USA). Real-time qPCR was performed using a real-time PCR machine (CFX Connect, Bio-Rad, Hercules, CA, USA), SYBR Green Supermix (Bio-Rad) and the relevant primers, and all experiments were performed in triplicate for statistical analysis.
To investigate mitochondrial dynamics, real-time qPCR was performed to analyze the expression of dynamin-related protein 1 (DRP1), which is a mitochondrial division-related gene, and mitofusion 1 (MFN1) and mitofusion 2 (MFN2), which are […] mitochondrial membrane fusion-related genes. As the real-time qPCR analysis method, the same method described in Experimental Example 1-2 above was used, and the results are shown in FIG. 2B.
Background: Real-time PCR tracks product formation cycle by cycle.

The subject of another assay is IL-6. The assay is described as follows: Real-time qPCR, SASP factor IL-6. To be noted: vs MSCs exposed to TNF-α/IFN-γ; FIG. 4B. On the procedure: as §1
In the present experiment, the expression of IL-1β, IL-6, and monocyte chemotactic protein-1 (MCP-1), which are SASP-associated factors of the untreated MSC control, the TNF-α/IFN-γ-exposed MSC control (TI), and the experimental group treated with the example compound in the TNF-α/IFN-γ-exposed MSC control was analyzed by real-time qPCR. As the real-time qPCR analysis method, the same method described in Experimental Example 1-2 above was used, and the results are shown in FIGS. 4A to 4C.

Another assay concerns AKT. In words: Western blotting, AKT phosphorylation ratio (mTORC1 pathway). To be noted: vs MSC control exposed to TNF-α/IFN-γ; FIG. 4D. The procedure: (§2) Further, the phosphorylation-induced activation ratios of AKT/mTOR/S6K, which represents the mTORC1 pathway, was analyzed. mTORC1 activation is known to not only induce senescence-associated phenotypes in MSCs, but also impair quiescence and sternness. In the present experiment, the phosphorylation ratio was confirmed using western blotting analysis as described below.
(§3) Proteins were extracted with a Pro-Prep protein lysis buffer (iNtRON) and quantified by a protein quantitative analysis kit (BIOMAX, Seoul, Korea). Samples were then heated in 4× Laemmli sample buffer (Bio-Rad) containing 2-mercaptoethanol (Bio-Rad), and proteins were loaded onto an 8% sodium dodecyl sulfate polyacrylamide gel and electrophoresed at 60 V for 30 minutes, and then electrophoresed at 120 V for 1 hour. […]
(§4) Immunoreactive bands were detected using an enhanced chemiluminescence detection reagent (Clarity™ Western blot substrate, Bio-Rad) and images of the bands were obtained using ImageSaver Version 6 (ATTO, Tokyo, Japan). The intensity of each band was analyzed with CA4 analyzer software (ATTO), and each experiment was performed in triplicate under the same conditions. […]
(In western blotting, separated proteins are transferred to a membrane and probed.)

The test system of a further assay is mTOR. In words: Western blotting, mTOR phosphorylation ratio (mTORC1 pathway). To be noted: vs MSC control exposed to TNF-α/IFN-γ; FIG. 4D. On the procedure:
as §2, §3, §4

For `O=S1(=O)CCN(Cc2cc(NC3CCOCC3)c3[nH]c(-c4ccccc4)cc3c2)CC1` [example compound, 5-[(1,1-dioxido-4-thiomorpholinyl)methyl]-2-phenyl-N-(tetrahydro-2H-pyran-4-yl)-1H-indole-7-amine], the “mitochondrial membrane potential and distribution” value in assay [1] was “restored to quiescence”. Besides, the MFN1 expression level entry with mitofusion 1 (MFN1) was “slightly reduced”. In the assay on IL-6, the IL-6 expression level entry is “decreased”. The “reduction of AKT phosphorylation ratio (pAKT/AKT)” value in the assay on AKT is reported as “about 25%”. In the assay on mTOR, the “reduction of mTOR phosphorylation ratio (pmTOR/mTOR)” value was around 30%.
